Read-outs that look alike come from different tables or passages of the source.
Tested on: TNBC BT-549 cells
Test: Cell survival / cell inhibition (MTT cell cytotoxicity assay) after 24 h treatment with photosensitizer and/or chemotherapeutic agent, dark or light-irradiated
Type: cell-based, human
Details: for viability at 1 µM / viability at 0.1 µM: doxorubicin; for viability at 1 µM: high end of 100-1000 nM, read-out: cell survival, drug only (end of decrease); for viability at 0.1 µM: low end of 100-1000 nM, read-out: cell survival, drug only (start of decrease); for cell inhibition (%), combination with cisplatin / cell inhibition (%), combination with doxorubicin / cell inhibition (%), combination with fluorouracil / cell inhibition (%), combination with methotrexate / cell inhibition (%), combination with paclitaxel: light 0.96 J cm−2; for cell inhibition (%), combination with doxorubicin: PS 100 nM + doxorubicin 500 nM; for cell inhibition (%), combination with methotrexate: PS 100 nM + methotrexate 500 nM; for cytotoxicity in the absence of light, PS alone: PS 500 nM
Protocol: Human mammary epithelial carcinoma cell lines purchased from the American Type Culture Collection BT-549 (ATCC HTB-122) were cultured according to ATCC protocol. BT-549 cells were grown in RPMI 1640 containing 0.023 IU/mL insulin and supplemented with 10% fetal bovine serum (FBS). Cells were grown to 80-90% confluence in 75-cm^2 culture flasks (Corning) for 4-5 days in a humidified incubator (Fisher Scientific Isotemp) with 5% CO2 at 37° C. During the incubation period, growth media was changed once with fresh pre-warmed media (pH 7.2). To harvest the cells, old growth media was aspirated out, and 3 mL 0.25% trypsin solution (Thermo Sci Hyclone) were added. The cells were incubated for 5 minutes, and the cell pellet after centrifugation was resuspended in 3 mL media, broken up gently, then 1 mL of suspended cells was transferred into a new T75 cell culture flask containing pre-warmed media (20 mL) for further culturing.
Cells were grown to confluence in a 96-well plate (9×10^3 cells/well) and co-treated for 24 hours with synthesized photosensitizers (PSs) and chemotherapeutic agents of varying concentrations ranging from 5 nM to 50 μM) in growth media from a stock solution of 10 mM in DMSO (dimethyl sulfoxide, Fisher). After 24-hour treatment, old growth media containing the PSs or compounds were aspirated out and replaced with fresh media. Plates were then positioned below a non-coherent LumaCare LC-122 650 nm light source for 1 minute at an energy fluence rate of 0.96 J/cm^2 and a power of 16 mW/cm^2 (measured using a Newport optical power meter Model 840). Unirradiated cells served as control samples. The following day, cells were washed with pre-warmed PBS, and 11MTT (3-[4,5-dimethyl-thiazol-2-yl]-2.5-diphenyltetrazolium bromide, Sigma, 0.3 mg/mL) in PBS was added to each well. Samples were allowed to incubate for additional 2 hours, after which dark blue crystals formed. DMSO was added to each well and plates were shaken at room temperature for 1 hour to dissolve the purplish-blue formazan crystals. Absorbance values at 570 nm were measured on a microplate reader (BioRad 550). Cell survival was calculated based on the absorbance of the untreated cells alone (as control) and were directly proportional to the number of viable cells in culture. Results were reported as the mean±SD of triplicate measurements.
The unmetallated PS and the indium complexes were used.
Light dose corresponds to an energy fluence rate of 0.96 J/cm^2 used.
Power of 16 mW/cm^2 used.
Cell inhibition in TNBC cells is based on the cell survival (MTT) assay of the binary therapy, blending the effect of PDT and chemotherapeutic agents. […] MePheo serves as a control compound. TNBC cells were then exposed to light after binary treatment for 24 hours.

[1] = Homo sapiens, BT-549, 24 h, dark
[2] = Homo sapiens, BT-549, 24 h, light
[3] = PS 100 nM + cisplatin 25 μM, 24 h
[4] = PS 100 nM + fluorouracil 25 μM, 24 h
[5] = PS 100 nM + paclitaxel 50 nM, 24 h

SMILES | viability at 0.5 µM (Homo sapiens, BT-549, 24 h, doxorubicin 500 nM, dark, read-out: cell survival, drug only) [%] | viability at 1 µM [1] [%] | viability at 0.1 µM [1] [%] | viability at 1 µM [2] [%] | viability at 0.1 µM [2] [%] | average decrease in cell survival upon light irradiation compared to unirradiated cells, drug only (drug alone, light vs dark) | cell inhibition (%), combination with cisplatin [3] [%] | effect of added cisplatin compared to cisplatin-treated cell viability (PS 100 nM + cisplatin 25 μM, light) | cell survival, co-treatment with cisplatin upon light (PS 100 nM + cisplatin 25 μM, light, 1440 min) [%] | cell inhibition (%), combination with doxorubicin (24 h) [%] | cell survival, co-treatment with fluorouracil in the dark (PS 100 nM + fluorouracil 25 μM, 24 h, dark) [%] | cell inhibition (%), combination with fluorouracil [4] [%] | cell inhibition (%), combination with methotrexate (24 h) [%] | cell survival, co-treatment with paclitaxel in the dark (PS 100 nM + paclitaxel 50 nM, 24 h, dark) [%] | cell inhibition (%), combination with paclitaxel [5] [%] | cell survival, PS alone (PS 100 nM, light 0.96 J/cm^2, 1440 min) [%] | cytotoxicity in the absence of light, PS alone (dark) | combination therapy vs monotherapy (cisplatin) (PS + cisplatin, light)
COc1cccc2c1C(=O)c1c(O)c3c(c(O)c1C2=O)C[C@@](O)(C(=O)CO)C[C@@H]3O[C@H]1C[C@H](N)[C@H](O)[C@H](C)O1 [doxorubicin, reference compound] | 81 | 70 | 100 | 72 | 95 | 2-5% |  |  |  |  |  |  |  |  |  |  |  | 
C=Cc1c(C)c2cc3nc(c(CC(=O)OC)c4[nH]c(cc5nc(cc1[nH]2)C(C)=C5CC)c(C)c4C(=O)NCCCCCCNC(=O)CCCC[C@@H]1CCSS1)[C@@H](CCC(=O)OC)[C@@H]3C [CLA, chlorin lipoic acid conjugate] |  |  |  |  |  |  | 65 | reduced cell survival | 35 | 33 | 84 | 35 | 43 | 59 | 45 | 90 | No cytotoxicity | better photodynamic effect when co-treated with cisplatin than PS-treatment alone
C=Cc1c(C)c2cc3nc(c(CC(=O)OC)c4[nH]c(cc5nc(cc1[nH]2)C(C)=C5CC)c(C)c4C(=O)NCCCCCCNC(=O)c1ccc(C(=C)c2cc4c(cc2C)C(C)(C)CCC4(C)C)cc1)[C@@H](CCC(=O)OC)[C@@H]3C [CBX, chlorin bexarotene conjugate] |  |  |  |  |  |  | 0 |  |  | 30 |  | 6 | 42 |  | 48 |  | No cytotoxicity | 
